How the values were obtained:
Assay type in all cases: cell-based
Mec1 = assay: CellTiter-Glo cell viability assay; conditions: Homo sapiens, 72 hours
OCI-Ly3 = assay: CellTiter-Glo cell viability assay; conditions: Homo sapiens, OCI-Ly3, 72 h
ATR = test system: ATR
BRAF = test system: BRAF
CAMK2D = test system: CAMK2D
CASK = test system: CASK
CLK3 = test system: CLK3
EPHB1 = test system: EPHB1
GSK3A = test system: GSK3A
HPK1 = test system: HPK1
IRAKI = test system: IRAKI
IRE1 = test system: IRE1
JAK3 domain2 = test system: JAK3 domain2
MAP2K3 = test system: MAP2K3
MAP3K1 = test system: MAP3K1
MARK4 = test system: MARK4
MER, TYRO3 = assay: KiNativ kinase profiling in A375 cells; conditions: Activation Loop, SEQ ID NO 102, 1.0 μM
NEK6, NEK7 = assay: KiNativ kinase profiling in A375 cells; conditions: Lys2, SEQ ID NO 122, 1.0 μM
NEK7 = test system: NEK7
p38b = test system: p38b
PIP4K2B = test system: PIP4K2B
RSK3 domain1 = test system: RSK3 domain1
RSK4 domain1 = test system: RSK4 domain1
SRC = test system: SRC
STK33 = test system: STK33
TAK1 = test system: TAK1
TBK1 = test system: TBK1
Wnk1, Wnk2, Wnk3 = assay: KiNativ kinase profiling in A375 cells; conditions: Lys2, SEQ ID NO 194, 1.0 μM
OCI-Ly7 = assay: CellTiter-Glo cell viability assay; conditions: Homo sapiens, 72 hours
TMD8 = assay: CellTiter-Glo cell viability assay; conditions: Homo sapiens, 72 hours

Q: Which EC50 (Mec1) does the source give for `CCN1CCN(Cc2ccc(NC(=O)c3ccc(C)c(Oc4cc(N)ncn4)c3)cc2C(F)(F)F)CC1` [(A-4), 3-((6-aminopyrimidin-4-yl)oxy)-N-(4-((4-ethylpiperazin-1-yl)methyl)-3-(trifluoromethyl)phenyl)-4-methylbenzamide] here?
A: Its EC50 is 14.3 µM.

Q: And the EC50 (OCI-Ly3)?
A: Its EC50 is 31.9 µM.

Q: And the “inhibition of kinase labeling” value (ATR)?
A: Its value is 23.0%.

Q: And the “inhibition of kinase labeling” value (BRAF)?
A: Its value is 18.9%.

Q: What about the “inhibition of kinase labeling” value (CAMK2D) of the same compound?
A: Its value is −8.1%.

Q: And the “inhibition of kinase labeling” value (CASK)?
A: Its value is −28.1%.

Q: What about the “inhibition of kinase labeling” value (CLK3) of the same compound?
A: The value was −52.8%.

Q: What about the “inhibition of kinase labeling” value (EPHB1) of the same compound?
A: Its value is −1.7%.

Q: And the “inhibition of kinase labeling” value (GSK3A)?
A: Its value is 36.0%.

Q: And the “inhibition of kinase labeling” value (HPK1)?
A: The value was 68.1%.

Q: What about the “inhibition of kinase labeling” value (IRAKI) of the same compound?
A: Its value is −3.5%.

Q: What about the “inhibition of kinase labeling” value (IRE1) of the same compound?
A: Its value is −2.2%.

Q: And the “inhibition of kinase labeling” value (JAK3 domain2)?
A: The value was 7.7%.

Q: What about the “inhibition of kinase labeling” value (MAP2K3) of the same compound?
A: The value was −1.0%.

Q: And the “inhibition of kinase labeling” value (MAP3K1)?
A: The value was 26.9%.

Q: And the “inhibition of kinase labeling” value (MARK4)?
A: The value was 2.9%.

Q: What about the “inhibition of kinase labeling” value (MER, TYRO3) of the same compound?
A: The value was 1.6%.

Q: What about the “inhibition of kinase labeling” value (NEK6, NEK7) of the same compound?
A: Its value is −12.5%.

Q: What about the “inhibition of kinase labeling” value (NEK7) of the same compound?
A: Its value is −7.2%.

Q: And the “inhibition of kinase labeling” value (p38b)?
A: The value was 51.4%.

Q: What about the “inhibition of kinase labeling” value (PIP4K2B) of the same compound?
A: The value was −44.7%.

Q: And the “inhibition of kinase labeling” value (RSK3 domain1)?
A: The value was −32.6%.

Q: And the “inhibition of kinase labeling” value (RSK4 domain1)?
A: The value was 27.6%.

Q: And the “inhibition of kinase labeling” value (SRC)?
A: The value was 76.1%.

Q: What about the “inhibition of kinase labeling” value (STK33) of the same compound?
A: Its value is 12.9%.

Q: And the “inhibition of kinase labeling” value (TAK1)?
A: Its value is 32.0%.

Q: What about the “inhibition of kinase labeling” value (TBK1) of the same compound?
A: Its value is 18.2%.

Q: What about the “inhibition of kinase labeling” value (Wnk1, Wnk2, Wnk3) of the same compound?
A: Its value is 0.2%.

Q: Which results are given for `CCN1CCN(Cc2ccc(NC(=O)c3ccc(C)c(Oc4ccnc(Nc5cnn(C)c5)n4)c3)cc2C(F)(F)F)CC1` [(A-14), N-(4-((4-ethylpiperazin-1-yl)methyl)-3-(trifluoromethyl)phenyl)-4-methyl-3-((2-((1-methyl-1H-pyrazol-4-yl)amino)pyrimidin-4-yl)oxy)benzamide]?
A: EC50 (OCI-Ly7): 0.173 µM; EC50 (TMD8): 0.045 µM

From patent publication US10633348B2, “Methods to treat lymphoplasmacytic lymphoma” (Dana-Farber Cancer Institute, Inc., priority 2013, dated 2020)
